Laboratory results as given in patent US8557839B2, “Fused ring azadecalin glucocorticoid receptor modulators” (Corcept Therapeutics, Inc., priority 2004, dated 2013).

Columns and labels:
glucocorticoid receptors [1] = molecular target: T1, glucocorticoid receptors (Homo sapiens, UniProt P04150); experiment: GR functional assay using SW1353/MMTV-5 cells (dexamethasone-induced luciferase); type: cell-based; parameters: contains endogenous glucocorticoid receptors; endogenous in cells; host or cells: SW1353/MMTV-5 (human chondrosarcoma, stably carrying the pMAMneo-Luc reporter); details: read-out: GR Functional
T1 sequence (P04150 1-777): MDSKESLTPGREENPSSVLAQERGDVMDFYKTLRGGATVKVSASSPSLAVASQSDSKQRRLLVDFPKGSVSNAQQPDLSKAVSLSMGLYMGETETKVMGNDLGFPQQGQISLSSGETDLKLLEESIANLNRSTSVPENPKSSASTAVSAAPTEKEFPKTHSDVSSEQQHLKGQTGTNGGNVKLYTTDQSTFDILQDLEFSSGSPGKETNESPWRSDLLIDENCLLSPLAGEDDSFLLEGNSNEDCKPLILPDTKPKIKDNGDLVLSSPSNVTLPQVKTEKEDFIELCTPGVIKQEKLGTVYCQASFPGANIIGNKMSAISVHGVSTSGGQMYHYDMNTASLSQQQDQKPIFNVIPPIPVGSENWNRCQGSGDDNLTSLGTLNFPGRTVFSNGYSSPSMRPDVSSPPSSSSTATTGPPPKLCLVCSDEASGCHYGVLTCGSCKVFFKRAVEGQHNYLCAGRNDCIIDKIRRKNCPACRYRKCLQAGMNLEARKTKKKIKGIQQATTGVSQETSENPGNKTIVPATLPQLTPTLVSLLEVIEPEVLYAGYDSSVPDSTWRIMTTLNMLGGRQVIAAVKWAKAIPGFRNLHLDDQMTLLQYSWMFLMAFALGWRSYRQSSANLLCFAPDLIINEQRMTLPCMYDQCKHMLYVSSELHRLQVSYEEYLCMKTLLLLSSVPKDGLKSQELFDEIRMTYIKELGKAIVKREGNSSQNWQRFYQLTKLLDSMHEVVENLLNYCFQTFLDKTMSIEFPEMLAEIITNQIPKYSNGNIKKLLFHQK
Experimental: SW1353/MMTV-5 is an adherent human chondrosarcoma cell line that contains endogenous glucocorticoid receptors. It was transfected with a plasmid (pMAMneo-Luc) encoding firefly luciferase located behind a glucocorticoid-responsive element (GRE) derived from a viral promoter (long terminal repeat of mouse mammary tumor virus). A stable cell line SW1353/MMTV-5 was selected with geneticin, which was required to maintain this plasmid.
SW1353/MMTV-5 cells were distributed in 96-well plates and incubated in medium (without geneticin) for 24 hrs (in the absence of CO2).

glucocorticoid receptors [2] = molecular target: T1, glucocorticoid receptors; experiment: Glucocorticoid receptor binding displacement assay with 3H-dexamethasone; parameters: This GR was a full-length steroid hormone receptor; host or cells: recombinant baculovirus-infected insect cells; details: Ki from IC50 by Cheng-Prusoff; 2.5 nM 3H-dexamethasone; read-out: GR Binding
Experimental: The source of the receptor was recombinant baculovirus-infected insect cells. This GR was a full-length steroid hormone receptor likely to be associated with heat-shock and other endogenous proteins.
For the Primary Screen, test compounds were tested at 1 μM in duplicate. These compounds were diluted from 10 mM stock in 100% DMSO. After dilution to 100 μM, 5 μl were added to 245 μl assay buffer to obtained 2 μM compound and 2% DMSO.
For the IC50 determinations, test compounds were tested at 6 concentrations in duplicate (concentration range depends on % inhibition binding that was obtained in the Primary Screen). Test compounds were diluted from 10 mM stock in 100% DMSO. The tested solutions were prepared at 2× final assay concentration in 2% DMSO/assay buffer.
All reagents and the assay plate were kept on ice during the addition of reagents. […] After the additions, the incubation mixture was mixed and incubated for 2.5 hrs at 4° C.
After 2.5 hrs incubation, unbound counts were removed with dextran coated charcoal (DCC) as follows: 25 μl of DCC solution (10% DCC in assay buffer) was added to all wells and mixed (total volume 225 μl). The plate was centrifuged at 4000 rpm for 10 minutes at 4° C. 75 μl of the supernatants (i.e.⅓ of total volume) was carefully pipetted into an optiplate. 200 μl of scintillation cocktail were added (Microscint-40, Packard Bioscience. B.V.). The plate was vigorously shaken for approx. 10 minutes and counted on Topcount.
The IC50 values were converted to Ki (the inhibition constant) using the Cheng-Prusoff equation.
Reagents: Assay buffer: 10 mM potassium phosphate buffer pH 7.6 containing 5 mM DTT, 10 mM sodium molybdate, 100 μM EDTA and 0.1% BSA.

[3] = SW1353/MMTV-5 cells, antagonism of 50 nM dexamethasone, luciferase

SMILES | Ki (glucocorticoid receptors [1]) [nM] | Ki (glucocorticoid receptors [2]) [nM] | Ki (glucocorticoid receptors [1]; [3]) [nM]
COc1ccc(CC23Cc4cnn(-c5ccc(F)cc5)c4C=C2CCN(Cc2ccccc2)C3)cc1 (stereo not shown) [drawing 244] | > 100 | < 10 | 
CC(C)(C)c1ccc(S(=O)(=O)N2CCC3=Cc4c(cnn4-c4ccc(F)cc4)C[C@]3(CCN3CCCC3)C2)cc1 | 10 to 100 | 10 to 100 | 
COC[C@]12Cc3cnn(-c4ccc(F)cc4)c3C=C1CCN(S(=O)(=O)N(C)C)C2 | > 100 | 10 to 100 | 
COCCOC[C@]12Cc3cnn(-c4ccc(F)cc4)c3C[C@@H]1CCN(S(=O)(=O)c1ccccc1)C2 | 10 to 100 | < 10 | 
CC(C)(C)c1ccc(S(=O)(=O)N2CCC3=Cc4c(cnn4-c4ccc(F)cc4)C[C@]3(Cc3ccccc3)C2)cc1 | < 10 | < 10 | 
CN(C)C(=O)[C@]12Cc3cnn(-c4ccc(F)cc4)c3C=C1CCN(S(=O)(=O)c1ccc(C(C)(C)C)cc1)C2 | > 100 | 10 to 100 | 
CC(C)(C)c1ccc(S(=O)(=O)N2CCC3=Cc4c(cnn4-c4ccncc4)C[C@]3(C)C2)cc1 | > 100 | < 10 | 
COC[C@]12Cc3cnn(-c4ccc(F)cc4)c3C[C@@H]1CCN(S(=O)(=O)c1ccccc1)C2 | > 100 | 10 to 100 | 
CC(C)(C)S(=O)(=O)N1CCC2=Cc3c(cnn3-c3ccc(F)cc3)C[C@]2(C)C1 | > 100 | > 100 | 
CN1CCOc2cc(S(=O)(=O)N3CCC4=Cc5[nH]ncc5CC4(Cc4ccccc4)C3)ccc21 (stereo not shown) [drawing 231] |  | < 10 | > 100
CC(C)(C)c1ccc(S(=O)(=O)N2CCC3=Cc4c(cnn4-c4ccc(F)cc4)C[C@]3(C(=O)c3ccccc3)C2)cc1 | < 10 | < 10 | 
COc1ccc(CC23Cc4cnn(-c5ccc(F)cc5)c4C=C2CCN(Cc2ccccc2)C3)cc1 (stereo not shown) [drawing 260] |  | < 10 | > 100
COCCOC[C@]12Cc3cnn(-c4ccc(F)cc4)c3C=C1CCN(S(=O)(=O)c1ccc(F)cc1)C2 | < 10 | < 10 | 
O=C(Nc1ccccc1)N1CCC2=Cc3c(cnn3-c3ccc(F)cc3)CC2(Cc2ccc(F)cc2)C1 (stereo not shown) | 10 to 100 | < 10 | 
Cc1ccc(-n2ncc3c2C=C2CCN(S(=O)(=O)c4ccc(C(C)(C)C)cc4)C[C@@]2(Cc2ccccc2)C3)cc1 | > 100 | < 10 | 
CC(C)(C)c1ccc(S(=O)(=O)N2CCC3=Cc4c(cnn4CC(F)(F)F)C[C@]3(CN3CCCC3)C2)cc1 | > 100 | 10 to 100 | 
CCCN1CCC2=Cc3c(cnn3-c3ccc(F)cc3)CC2(Cc2ccc(F)cc2)C1 (stereo not shown) | > 100 | 10 to 100 | 
COCCOC[C@]12Cc3cnn(-c4ccc(F)cc4)c3C=C1CCN(S(=O)(=O)c1ccccc1)C2 | < 10 | < 10 | 
CC(C)n1ncc2c1C=C1CCN(S(=O)(=O)c3ccc(C(C)(C)C)cc3)C[C@@]1(CN1CCCCC1)C2 | 10 to 100 | < 10 | 
CCNC(=O)[C@]12Cc3cnn(-c4ccc(F)cc4)c3C=C1CCN(S(=O)(=O)c1ccc(C(C)(C)C)cc1)C2 | > 100 | < 10 | 
COC[C@]12Cc3cnn(-c4ccc(F)cc4)c3C=C1CCN(S(=O)(=O)c1ccc(C(C)(C)C)cc1)C2 | < 10 | < 10 | 
CS(=O)(=O)N1CCC2=Cc3c(cnn3-c3ccc(F)cc3)CC2(Cc2ccc(F)cc2)C1 (stereo not shown) | > 100 | 10 to 100 | 
CC(C)(C)c1ccc(S(=O)(=O)N2CCC3=Cc4c(cnn4-c4ccc(F)cc4)C[C@]3(CCO)C2)cc1 | 10 to 100 | < 10 | 
